Experimental data published in US20060160135A1, “SF-1 and LRH-1 modulator development” (priority 2004, published 2006).

Tests used:
human SF-1 = target: T1, human SF-1 (Homo sapiens, UniProt Q13285); assay: AlphaScreen coactivator (SRC-1/NCoA1) recruitment to His-tagged SF-1 LBD; assay type: biochemical; conditions: for dose-dependent NCoA1/SRC1 recruitment to SF-1: FIG. 7B, liposome-washed SF-1
T1 construct: For E. coli expression the SF-1 G219-T461 insert was cloned into a modified pET vector; made in house
T1 sequence (Q13285 219-461): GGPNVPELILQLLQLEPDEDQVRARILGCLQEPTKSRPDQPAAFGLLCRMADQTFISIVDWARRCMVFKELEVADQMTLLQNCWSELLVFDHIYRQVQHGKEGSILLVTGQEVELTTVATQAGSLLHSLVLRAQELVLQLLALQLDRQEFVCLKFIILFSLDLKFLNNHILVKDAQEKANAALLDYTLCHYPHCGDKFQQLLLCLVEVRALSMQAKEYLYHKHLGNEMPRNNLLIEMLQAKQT
T1 sequence (Q15788 595-780 partner limits assumed): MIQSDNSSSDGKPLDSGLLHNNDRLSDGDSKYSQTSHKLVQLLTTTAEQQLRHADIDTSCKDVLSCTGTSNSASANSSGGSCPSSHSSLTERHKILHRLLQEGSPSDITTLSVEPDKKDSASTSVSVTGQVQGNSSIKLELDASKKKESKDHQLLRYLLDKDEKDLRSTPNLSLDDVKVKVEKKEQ
Excerpt: However, the lipids binding SF-1 could be partially extracted by washing the proteins with liposomes prepared using phosphatidylcholine (C22 acyl chain length). It was reasoned that such liposomes with long acyl chains could act as a sink for extracted lipids, without binding the receptors themselves. After such washing the coactivator binding by SF-1 was diminished, but could be activated by the addition of phosphatidylethanolamine (FIG. 5A). The PE 16:0 16:1 observed in the crystal structure is unavailable commercially, so it could not be readily obtained. […] (Parks et al., Science, 1999, 284:1365-8; Makishima et al., Science, 1999, 284:1362-5.)
A variety of different methods for detecting molecular interactions can be used. For example, Alpha Screen technology (Perkin Elmer) is suitable to detect the interaction of the receptor with the coactivator fragment. In this case it is suitable to engineer the ligand-binding domain of the SF-1 and LRH-1 as an N-terminally HIS-tagged protein that can bind the acceptor bead (containing Nickel moieties that will bind the HIS tag). The coactivator fragment can be synthesized containing a biotin moiety that will bind the donor bead. In the presence of ‘activating’ compounds the association of the receptor with the co-regulator may be strengthened, whereas the presence of ‘inhibitory’ compounds may destabilize this interaction. Libraries of chemicals, or derivatives, can be quantified for their effects on co-regulator binding.
Thus, in an exemplary implementation, the Alpha Screen Histidine detection (Nickel chelate) kit (Perkin Elmer) is used to detect binding between His-tagged receptor LBD and biotinylated coactivator peptides or fragments. The assay is performed in Costar 384-well white polystyrene plates (Coming Inc.), in a total volume of 20 μL. Compounds to be tested for their abilities to modulate the interaction of nuclear receptor with coactivator are added to the 384-well plate in 1 μL of DMSO or buffer in advance of addition of the receptor and coactivator proteins.
Reactions are initiated in 15 μl containing 50 nM His-tagged nuclear receptor and […] biotin-tagged coactivator fragment, using buffer containing 50 mM Bis-tris HCl (pH 7.0), 50 mM KCl, 0.05% Tween 20, 1 mM DTT, 0.1% BSA. Other buffer variations can be tested to optimize the largest difference in signals obtained using the apo receptor and receptor bound to compounds already determined to bind and activate the receptor. After the protein solutions are added to the compounds, the plate is sealed and incubated at room temp for 2 hours. After incubation, a 5 μL mixture containing streptavidin donor beads (15 μg/ml) and Ni-chelate acceptor beads (15 μg/ml) are added from the Nickel chelate kit. Plates are resealed and incubated in the dark for 2 hours at room temperature and then read in an AlphaFusion reader set at a read time of 1 s/well.
A signal is produced by the binding of coactivator to nuclear receptor that can be detected by the AlphaFusion reader (the binding brings the acceptor beads into close proximity of the donor beads, which allows the acceptor beads to detect the singlet oxygens produced by the donor beads, causing them to emit a light detected by the instrument). Data analysis can be performed using GraphPad Prism (GraphPad Software, Inc.). […]

SF-1 = conditions: CV-1 cells; cited from earlier work
[1] = target: coactivator fragment (GST-coactivator fusion protein; the filing does not say which); assay: co-expression in E. coli, metal affinity purification of His-tagged LRH-1

Compound: phosphatidylethanolamine
- coactivator binding by SF-1 after liposome washing (human SF-1; SF-1 washed with phosphatidylcholine liposomes, then lipid added): activated

Compound: CC/C=C\C/C=C\C/C=C\CCCCCCCC(=O)OC[C@H](COP(=O)(O)OCCN)OC(=O)CCCCCCC/C=C\C/C=C\C/C=C\CC [PE-18:3, 1,2-dilinolenoyl-sn-glycero-3-phosphoethanolamine]
- activation of wild-type SF-1 to bind NCoA1 as measured by AlphaScreen (human SF-1; 50 μM compound, FIG. 7A): activates
- dose-dependent NCoA1/SRC1 recruitment to SF-1 (human SF-1): Dose-dependent
- dose-dependent NCoA1/SRC1 recruitment to SF-1 (human SF-1; listed as PE 18:3 18:3): dose-dependent increase
- EC50 (human SF-1; SF-1 protein washed with phosphatidylcholine liposomes, biotinylated GST-SRC-1 fragment): 30 µM

Compound: C[C@@H](CO)CCC[C@@H](C)[C@H]1CC[C@H]2[C@@H]3CC=C4C[C@@H](O)CC[C@]4(C)[C@H]3CC[C@]12C [27-hydroxycholesterol]
- SF-1-dependent transcriptional activity (SF-1): modest increase

Compound: C[C@@H](CO)CCC[C@@H](C)[C@H]1CC[C@H]2[C@@H]3CC=C4C[C@@H](O)CC[C@]4(C)[C@H]3CC[C@]12C [26-hydroxycholesterol]
- SF-1-dependent transcriptional activity (SF-1): modest increase

Compound: His-tagged human LRH-1 LBD (S251-A495) E488K (from UniProt O00482-2) (receptor)
- decrease in coactivator fragment binding compared to the LRH-1-WT protein [1]: 70%

Compound: C[C@H](CCCC(C)(C)O)[C@H]1CC[C@H]2[C@@H]3CC=C4C[C@@H](O)CC[C@]4(C)[C@H]3CC[C@]12C [25-hydroxycholesterol]
- SF-1-dependent transcriptional activity (SF-1): modest increase
